For 19 molecules, IC50 and Ki results are on record in patent US9593097B2, “Axl inhibitors” (Pfizer Inc., priority 2014, dated 2017).

Where two headings read alike, the source gives them in different places.

Assay [1] has as its target Axl phosphorylation in 293MSR-AxlWT6 cells (Homo sapiens (Human), UniProt P30530). Put plainly: Cellular Axl phosphorylation ELISA assay (Gas6-stimulated 293MSR-AxlWT6 cells). It is filed as cell-based. Particulars: read-out: CELL AXL IC50. As for the experimental part:
Cellular Axl Phosphorylation ELISA Assay
After 6-7 hrs in tissue culture incubator at 37° C. 5% CO2, medium was removed, serum-free medium was added (with 0.04% bovine serum albumin) and plates were returned to incubator where they remained overnight. […] Media was then removed and lysis buffer was added to wells and shaken at 4° C. for 30 min to generate protein lysates. Subsequently, phosphorylation of Axl was assessed by a sandwich ELISA method using a DuoSet IC Human Phospho-Axl ELISA assay kit (R&D System), an immobilized mouse anti-human Axl antibody and an anti-phospho-tyrosine-HRP antibody as a detection antibody. Antibody-coated plates were (a) incubated in presence of protein lysates at room temperature for 2 hrs, (b) washed seven times in 0.1% Tween 20 in PBS, (c) incubated with secondary antibody (a horseradish peroxidase-conjugated […]) for 2 hrs, (d) washed seven times again, (e) TMB peroxidase substrate (Bio-Rad) was added to initiate a colorimetric reaction and stopped by adding 0.2 N H2SO4, and (f) measured at OD 450 nm using a spectrophotometer. IC50 values were calculated by concentration-response curve fitting using a four-parameter analytic method and reported in μM.
For Table 4B, IC50 values were calculated by concentration-response curve fitting using a four-parameter analytic method and reported in nM.

For assay [2], the target named is Human wild-type receptor tyrosine kinase protein Axl (residues 505-811) (Homo sapiens (Human), UniProt P30530). Conditions: read-out: ENZYME AXL KI; Table 4B.
Sequence of Human wild-type receptor tyrosine kinase protein Axl (residues 505-811) (P30530 505-811): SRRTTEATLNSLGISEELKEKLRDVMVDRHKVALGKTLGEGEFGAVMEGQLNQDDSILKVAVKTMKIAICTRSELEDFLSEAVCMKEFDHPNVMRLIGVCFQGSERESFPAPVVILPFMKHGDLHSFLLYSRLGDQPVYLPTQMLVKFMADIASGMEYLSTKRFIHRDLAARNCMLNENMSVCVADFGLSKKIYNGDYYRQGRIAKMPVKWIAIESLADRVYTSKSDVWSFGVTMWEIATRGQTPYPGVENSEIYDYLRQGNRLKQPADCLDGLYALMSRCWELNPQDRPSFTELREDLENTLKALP

Sequence of Axl phosphorylation in 293MSR-AxlWT6 cells (P30530 26-894): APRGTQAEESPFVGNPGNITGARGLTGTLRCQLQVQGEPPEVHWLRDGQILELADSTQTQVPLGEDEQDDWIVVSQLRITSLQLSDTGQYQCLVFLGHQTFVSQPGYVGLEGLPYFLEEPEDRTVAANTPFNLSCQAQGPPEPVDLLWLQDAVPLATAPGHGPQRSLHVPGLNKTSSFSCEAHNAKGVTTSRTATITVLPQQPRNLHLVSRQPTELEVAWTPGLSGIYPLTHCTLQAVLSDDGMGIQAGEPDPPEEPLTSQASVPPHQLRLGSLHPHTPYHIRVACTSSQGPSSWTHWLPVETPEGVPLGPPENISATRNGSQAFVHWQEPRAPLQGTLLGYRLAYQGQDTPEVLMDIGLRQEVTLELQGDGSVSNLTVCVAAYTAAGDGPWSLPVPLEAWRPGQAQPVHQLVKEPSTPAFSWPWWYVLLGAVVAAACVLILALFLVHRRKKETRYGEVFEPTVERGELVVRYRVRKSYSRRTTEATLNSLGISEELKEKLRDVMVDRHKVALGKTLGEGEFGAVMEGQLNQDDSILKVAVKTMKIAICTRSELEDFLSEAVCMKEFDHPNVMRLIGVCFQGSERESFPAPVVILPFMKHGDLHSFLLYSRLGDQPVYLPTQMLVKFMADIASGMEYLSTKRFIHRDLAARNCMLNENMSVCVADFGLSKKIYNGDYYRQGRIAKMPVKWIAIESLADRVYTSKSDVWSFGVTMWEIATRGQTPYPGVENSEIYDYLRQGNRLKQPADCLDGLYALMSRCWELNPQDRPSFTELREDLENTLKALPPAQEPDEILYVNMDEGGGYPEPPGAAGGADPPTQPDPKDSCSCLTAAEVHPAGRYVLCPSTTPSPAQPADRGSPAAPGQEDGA

With `COc1ccnc2[nH]cc(C3CCN(c4nc(OC[C@H]5C[C@H]5C#N)nc(C(=O)NC56CC(C5)C6)n4)CC3)c12` (single isomer, unassigned) [Example 504], the IC50 (in general, the point on the concentration scale where inhibition reaches its midpoint) in assay [1] (Table 4B) is 0.125 nM. Moreover, the inhibition constant Ki (as a rule, the dissociation constant of the complex between target and ligand, obtained from inhibition or displacement) in assay [2] was below 0.082 nM.
With `COC[C@@H](C)Oc1nc(C(=O)NC23CC(C2)C3)nc(N2CCC(c3c[nH]c4nccc(OC)c34)CC2)n1` (single isomer, unassigned) [Example 505], in assay [1] (Table 4B), the IC50 stood at 0.409 nM. For the same molecule, in assay [2], the Ki was below 0.082 nM.
With `N#CC1(COc2nc(C(=O)NCC(F)(F)F)nc(N3CCC(COc4cccnc4N)CC3)n2)CC1` [Example 91, 4-(4-{[(2-aminopyridin-3-yl)oxy]methyl}piperidin-1-yl)-6-[(1-cyanocyclopropyl)methoxy]-N-(2,2,2-trifluoroethyl)-1,3,5-triazine-2-carboxamide], the IC50 in assay [1] (Table 4A) stood at 64.9 nM.
Same read-out and setting: in the case of `N#CC1(COc2nc(C(=O)NCC(F)(F)F)nc(N3CCC(c4c[nH]c5nccnc45)CC3)n2)CC1` [Example 132, 4-(4-(5H-pyrrolo[2,3-b]pyrazin-7-yl)piperidin-1-yl)-6-((1-cyanocyclopropyl)methoxy)-N-(2,2,2-trifluoroethyl)-1,3,5-triazine-2-carboxamide] it was 231 nM; in that of `CCNC(=O)c1nc(OCC2(C#N)CC2)nc(N2CCC(c3n[nH]c4ncccc34)CC2)n1` [Example 133, 4-(4-(1H-pyrazolo[3,4-b]pyridin-3-yl)piperidin-1-yl)-6-((1-cyanocyclopropyl)methoxy)-N-ethyl-1,3,5-triazine-2-carboxamide], 285 nM.
On the same count and under the same terms, in the case of `COc1ccnc2[nH]cc(C3CCN(c4cc(C(=O)N[C@H](C)CO)nc(OC[C@H]5C[C@H]5C#N)n4)CC3)c12` [Example 377, 2-{[(1S,2R)-2-cyanocyclopropyl]methoxy}-N-[(2R)-1-hydroxypropan-2-yl]-6-[4-(4-methoxy-1H-pyrrolo[2,3-b]pyridin-3-yl)piperidin-1-yl]pyrimidine-4-carboxamide] it was 0.4 nM.
Still for that read-out and setting: in the case of `COc1ccnc2[nH]cc(C3CCN(c4nc(OC[C@H]5C[C@H]5C#N)nc(C(=O)NC5(C)CCC5)n4)CC3)c12` [Example 378, 4-{[(1S,2R)-2-cyanocyclopropyl]methoxy}-6-[4-(4-methoxy-1H-pyrrolo[2,3-b]pyridin-3-yl)piperidin-1-yl]-N-(1-methylcyclobutyl)-1,3,5-triazine-2-carboxamide] it was 0.24 nM; in that of `COc1ccnc2[nH]cc(C3CCN(c4nc(OC[C@H]5C[C@H]5C#N)nc(C(=O)N[C@@H](C)C(F)(F)F)n4)CC3)c12` [Example 379, 4-{[(1S,2R)-2-cyanocyclopropyl]methoxy}-6-[4-(4-methoxy-1H-pyrrolo[2,3-b]pyridin-3-yl)piperidin-1-yl]-N-[(2S)-1,1,1-trifluoropropan-2-yl]-1,3,5-triazine-2-carboxamide], 0.2 nM; in that of `COc1ccnc2[nH]cc(C3CCN(c4nc(OC[C@H]5C[C@H]5C#N)nc(C(=O)NCC(F)(F)F)n4)CC3)c12` [Example 380, 4-{[(1S,2R)-2-cyanocyclopropyl]methoxy}-6-[4-(4-methoxy-1H-pyrrolo[2,3-b]pyridin-3-yl)piperidin-1-yl]-N-(2,2,2-trifluoroethyl)-1,3,5-triazine-2-carboxamide], 0.72 nM.
In the case of `COc1ccnc2[nH]nc(C3CCN(c4cc(C(=O)N[C@@H](C)C(F)(F)F)nc(OC[C@H]5CCO5)n4)CC3)c12` [Example 381, 6-[4-(4-methoxy-1H-pyrazolo[3,4-b]pyridin-3-yl)piperidin-1-yl]-2-[(2R)-oxetan-2-ylmethoxy]-N-[(2S)-1,1,1-trifluoropropan-2-yl]pyrimidine-4-carboxamide], the IC50 in assay [1] (Table 4A) turned out to be 0.77 nM.
Still for that read-out and setting: in the case of `C[C@H](CO)NC(=O)c1cc(N2CCC(c3n[nH]c4ncccc34)CC2)nc(OC[C@@H]2CCOC2)n1` [Example 382, N-[(2R)-1-hydroxypropan-2-yl]-6-[4-(1H-pyrazolo[3,4-b]pyridin-3-yl)piperidin-1-yl]-2-[(3R)-tetrahydrofuran-3-ylmethoxy]pyrimidine-4-carboxamide] it was 154 nM; in that of `C[C@H](CO)NC(=O)c1cc(N2CCC(c3n[nH]c4ncccc34)CC2)nc(OC[C@H]2CCOC2)n1` [Example 383, N-[(2R)-1-hydroxypropan-2-yl]-6-[4-(1H-pyrazolo[3,4-b]pyridin-3-yl)piperidin-1-yl]-2-[(3S)-tetrahydrofuran-3-ylmethoxy]pyrimidine-4-carboxamide], 120 nM.
On the same count and under the same terms, in the case of `C[C@H](CO)NC(=O)c1cc(N2CCC(COc3cc(-c4cn(C)cn4)cnc3N)CC2)nc(OCC2CC2)n1` [Example 384, 6-[4-({[2-amino-5-(1-methyl-1H-imidazol-4-yl)pyridin-3-yl]oxy}methyl)piperidin-1-yl]-2-(cyclopropylmethoxy)-N-[(2R)-1-hydroxypropan-2-yl]pyrimidine-4-carboxamide] it was 0.36 nM.
Consider `COc1ccnc2[nH]cc(C3CCN(c4cc(C(=O)N[C@H](C)CO)nc(OCC5(C#N)CC5)n4)CC3)c12` [Example 387, 2-[(1-cyanocyclopropyl)methoxy]-N-[(2R)-1-hydroxypropan-2-yl]-6-[4-(4-methoxy-1H-pyrrolo[2,3-b]pyridin-3-yl)piperidin-1-yl]pyrimidine-4-carboxamide], for which, in assay [1] (Table 4B), the IC50 stood at 0.152 nM. In addition, in assay [2], the Ki was below 0.018 nM.
Regarding `C[C@H](NC(=O)c1nc(OCC2CC2)nc(N2CCC(COc3cc(-c4cn(C)cn4)cnc3N)CC2)n1)C(F)(F)F` [Example 391, 4-[4-({[2-amino-5-(1-methyl-1H-imidazol-4-yl)pyridin-3-yl]oxy}methyl)piperidin-1-yl]-6-(cyclopropylmethoxy)-N-[(2S)-1,1,1-trifluoropropan-2-yl]-1,3,5-triazine-2-carboxamide], the IC50 in assay [1] (Table 4B) turned out to be 0.143 nM. Moreover, the Ki in assay [2] is below 0.013 nM.
The matching figures for `COc1ccnc2[nH]nc(C3CCN(c4cc(C(=O)N[C@H](C)CO)nc(OCc5ccccc5)n4)CC3)c12` [Example 415, 2-(benzyloxy)-N-[(2R)-1-hydroxypropan-2-yl]-6-[4-(4-methoxy-1H-pyrazolo[3,4-b]pyridin-3-yl)piperidin-1-yl]pyrimidine-4-carboxamide]: 0.052 nM and below 0.013 nM.
As for `COc1ccnc2[nH]cc(C3CCN(c4cc(C(=O)N[C@H](C)CO)nc(OC[C@H]5CCCO5)n4)CC3)c12` [Example 459, N-[(2R)-1-hydroxypropan-2-yl]-6-[4-(4-methoxy-1H-pyrrolo[2,3-b]pyridin-3-yl)piperidin-1-yl]-2-[(2R)-tetrahydrofuran-2-ylmethoxy]pyrimidine-4-carboxamide], the half-inhibitory concentration (IC50) in assay [1] (Table 4B) was 0.272 nM. In assay [2], the Ki is below 0.013 nM.
The matching figures for `COc1ccnc2[nH]nc(C3CCN(c4nc(OC[C@H]5C[C@H]5C#N)nc(C(=O)NC5CCC5)n4)CC3)c12` [Example 501, 4-{[(1S,2R)-2-cyanocyclopropyl]methoxy}-N-cyclobutyl-6-[4-(4-methoxy-1H-pyrazolo[3,4-b]pyridin-3-yl)piperidin-1-yl]-1,3,5-triazine-2-carboxamide]: 1.07 nM and below 0.412 nM.
For `COC[C@@H](C)Oc1nc(C(=O)NC2CCC2)nc(N2CCC(c3c[nH]c4nccc(OC)c34)CC2)n1` [Example 502, N-cyclobutyl-4-{[(2R)-1-methoxypropan-2-yl]oxy}-6-[4-(4-methoxy-1H-pyrrolo[2,3-b]pyridin-3-yl)piperidin-1-yl]-1,3,5-triazine-2-carboxamide], the IC50 in assay [1] (Table 4B) was 0.132 nM. The Ki in assay [2] is below 0.082 nM.
